Tests used:
rabbit TGR5 = molecular target: T1, rabbit TGR5 (Oryctolagus cuniculus, UniProt Q862A8); assay: CRE-luciferase reporter assay in CHO-mock cells co-expressing Gi and rabbit TGR5; assay type: cell-based; details: 10 μM bile acid, rabbit TGR5, versus group with no bile acid (Base)
T1 construct: expressed in transfected cells; host or cells: CHO-mock cells, transient, with Gi plasmid and reporter plasmid
T1 sequence (Q862A8 1-330): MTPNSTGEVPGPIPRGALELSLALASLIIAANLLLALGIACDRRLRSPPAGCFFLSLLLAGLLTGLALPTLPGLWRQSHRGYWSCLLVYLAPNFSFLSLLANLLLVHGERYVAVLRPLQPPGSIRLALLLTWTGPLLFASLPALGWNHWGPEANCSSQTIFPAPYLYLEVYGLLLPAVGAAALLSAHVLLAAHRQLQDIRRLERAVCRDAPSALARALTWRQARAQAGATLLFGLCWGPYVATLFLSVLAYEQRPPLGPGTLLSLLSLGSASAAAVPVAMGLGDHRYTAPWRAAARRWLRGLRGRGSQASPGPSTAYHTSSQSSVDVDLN
Experimental: (§1) Alternatively, an assay under condition wherein forskolin was added to the assay buffer at the final concentration of 2 μM, was performed in the same way. […] After completion of incubation, the assay buffer was removed from each well. Then 50 μl of luminescent substrate for PicaGene LT2.0 (Toyo Ink) was added to each well.
(§2) The mixing ratio of these three plasmids is, where the total volume is 11 μl, appropriate for 1 to 6, preferably 1 to 3 of Gi.
(§3) For a positive control of reporter gene expression, forskolin (FSSK, 2 μM) was used.

bovine TGR5 = molecular target: T2, bovine TGR5 (Bos taurus, UniProt Q862A9); assay: CRE-luciferase reporter assay in CHO-mock cells co-expressing Gi and bovine TGR5; assay type: cell-based; details: 10 μM bile acid, bovine TGR5, versus group with no bile acid (Base)
T2 construct: expressed in transfected cells; host or cells: CHO-mock cells, transient, with Gi plasmid and reporter plasmid
T2 sequence (Q862A9 1-329): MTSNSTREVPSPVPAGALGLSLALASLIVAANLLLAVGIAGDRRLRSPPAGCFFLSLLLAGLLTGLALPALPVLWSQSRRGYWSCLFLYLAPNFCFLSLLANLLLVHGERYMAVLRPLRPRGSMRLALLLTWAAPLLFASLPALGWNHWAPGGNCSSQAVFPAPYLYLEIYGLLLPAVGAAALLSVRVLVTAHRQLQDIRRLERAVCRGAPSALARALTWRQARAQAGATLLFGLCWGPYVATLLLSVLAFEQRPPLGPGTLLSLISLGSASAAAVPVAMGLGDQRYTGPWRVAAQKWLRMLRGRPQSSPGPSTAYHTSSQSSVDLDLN
Experimental: as §1, §2, §3

mouse TGR5 = molecular target: T3, mouse TGR5 (Mus musculus, UniProt Q80SS6); assay: CRE-luciferase reporter assay in CHO-mock cells co-expressing Gi and mouse TGR5; assay type: cell-based; details: 10 μM bile acid, mouse TGR5, versus group with no bile acid (Base)
T3 construct: expressed in transfected cells; host or cells: CHO-mock cells, transient, with Gi plasmid and reporter plasmid
T3 sequence (Q80SS6 1-329): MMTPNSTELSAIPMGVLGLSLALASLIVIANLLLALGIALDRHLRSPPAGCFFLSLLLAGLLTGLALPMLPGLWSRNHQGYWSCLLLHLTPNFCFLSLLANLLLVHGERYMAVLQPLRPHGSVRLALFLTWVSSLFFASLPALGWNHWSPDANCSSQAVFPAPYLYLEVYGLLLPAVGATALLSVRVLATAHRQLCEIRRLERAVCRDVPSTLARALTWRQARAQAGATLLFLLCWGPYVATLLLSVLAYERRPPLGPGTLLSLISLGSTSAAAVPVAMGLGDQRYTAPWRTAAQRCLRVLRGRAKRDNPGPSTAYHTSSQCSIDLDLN
Experimental: as §1, §2, §3

rat TGR5 = molecular target: T4, rat TGR5 (Rattus norvegicus, UniProt Q80T02); assay: CRE-luciferase reporter assay in CHO-mock cells co-expressing Gi and rat TGR5; assay type: cell-based; details: 10 μM bile acid, rat TGR5, versus group with no bile acid (Base)
T4 construct: expressed in transfected cells; host or cells: CHO-mock cells, transient, with Gi plasmid and reporter plasmid
T4 sequence (Q80T02 1-329): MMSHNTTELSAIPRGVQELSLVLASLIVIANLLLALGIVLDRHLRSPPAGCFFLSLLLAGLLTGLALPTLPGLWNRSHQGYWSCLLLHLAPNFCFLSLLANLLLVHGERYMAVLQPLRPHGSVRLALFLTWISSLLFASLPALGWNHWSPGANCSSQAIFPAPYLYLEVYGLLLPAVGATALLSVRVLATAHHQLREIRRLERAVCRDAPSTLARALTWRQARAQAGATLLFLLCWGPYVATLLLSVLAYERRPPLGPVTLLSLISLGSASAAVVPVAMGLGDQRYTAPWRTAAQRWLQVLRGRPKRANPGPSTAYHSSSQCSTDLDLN
Experimental: as §1, §2, §3

TGR5 [1] = molecular target: T5, TGR5 (Homo sapiens, UniProt Q8TDU6); assay: cAMP production in TGR5 expressing CHO cells (CHO-TGR5); assay type: cell-based; set-up: expressed in transfected cells; details: CHO-TGR5, 20 minutes; potency in order TLCA, LCA, DCA, CDCA, CA
T5 sequence (Q8TDU6 1-330): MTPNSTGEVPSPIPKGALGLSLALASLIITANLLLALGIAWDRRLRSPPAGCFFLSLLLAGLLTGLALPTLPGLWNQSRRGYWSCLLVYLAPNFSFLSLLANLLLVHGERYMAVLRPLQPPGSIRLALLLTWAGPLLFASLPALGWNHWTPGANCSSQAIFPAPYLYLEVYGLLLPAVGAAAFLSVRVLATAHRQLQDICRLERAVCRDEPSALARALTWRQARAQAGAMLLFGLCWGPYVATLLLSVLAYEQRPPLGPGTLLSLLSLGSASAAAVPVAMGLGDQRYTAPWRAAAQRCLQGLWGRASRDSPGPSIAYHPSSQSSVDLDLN
Experimental: The cells were washed twice with assay buffer (DMEM supplemented with 0.1% bovine serum albumin and 0.2 mM 3-isobutyl-1-methylxanthine (IBMX)) and preincubated for 30 minutes. After washing the cells twice, a sample diluted with assay buffer was added to the cells, and the cells were incubated for 20 minutes. The culture supernatant was discarded, and by cAMP Screen System (ABI), cAMP production level was measured. […] The cAMP production level was represented by % for positive control as 100%.

TGR5 [2] = molecular target: T5, TGR5; assay: CRE-luciferase reporter assay in CHO-mock cells co-expressing Gi and human TGR5; assay type: cell-based; set-up: expressed in transfected cells; host or cells: CHO-mock cells (CHO(dhfr-) transformed with pAKKO-111H), transient, with Gi plasmid and reporter plasmid; details: 10 μM bile acid, human TGR5, versus group with no bile acid (Base)
Experimental: as §1, §2, §3

[3] = test system: rabbit alveolus macrophage; assay: Phagocytotic activity of rabbit alveolus macrophage (yeast uptake, fuchsin staining); details: 100 μM, 16 hours
Experimental: From rabbit (NZW, female, approximately 2.5 to 3.0 kg of weight), under anesthesia, serum and lung were collected. By washing with PBS (phosphate-buffered saline) transfused through trachea, suspension containing alveolus macrophage in the lung was recovered. After washing the obtained cells with further PBS, the cells were suspended in medium (DMEM supplemented with 2% FBS, 0.1 mM non-essential amino acids, 50 μg/ml streptomycin, 50 U/ml penicillin and 50 μg/ml gentamicin; any component from GibcoBRL), loaded on Ficoll-Paque Plus (Amersham Pharmacia), isolator for mononuclear cells, and treated with centrifugation to remove erythrocyte. […] Then the cells were further cultured for 16 hours. Fifty μl of serum obtained from the same rabbit, and 0.8×10^8/ml of yeast suspension sterilized by heating, were added to the culture. Subsequently, the cell were cultured under 5% CO2 for 40 minutes. After adding 60 μl of 0.1% fuchsin solution (Wako Pure Chemicals) to the culture, the cells were peeled and were centrifuged. The suspension was observed by microscope.

| Compound | luciferase activity (reporter gene expression level) (rabbit TGR5) | luciferase activity (reporter gene expression level) (bovine TGR5) | luciferase activity (reporter gene expression level) (mouse TGR5) | luciferase activity (reporter gene expression level) (rat TGR5) | cAMP production (TGR5 [1]) | luciferase activity (reporter gene expression level) (TGR5 [2]) | phagocytotic activity of macrophage [3] |
| --- | --- | --- | --- | --- | --- | --- | --- |
| C[C@H](CCC(=O)O)[C@H]1CC[C@H]2[C@@H]3[C@H](O)C[C@@H]4C[C@H](O)CC[C@]4(C)[C@H]3CC[C@]12C [CDCA, chenodeoxycholic acid] | higher luciferase activity than that of a group with no bile acid | higher luciferase activity than that of a group with no bile acid | higher luciferase activity than that of a group with no bile acid | higher luciferase activity than that of a group with no bile acid | increase of cAMP production, which is dependent on concentration | higher luciferase activity than that of a group with no bile acid |  |
| C[C@H](CCC(=O)O)[C@H]1CC[C@H]2[C@@H]3[C@H](O)C[C@@H]4C[C@H](O)CC[C@]4(C)[C@H]3C[C@H](O)[C@]12C [CA, cholic acid] |  |  |  |  | increase of cAMP production, which is dependent on concentration |  |  |
| C[C@H](CCC(=O)NCC(=O)O)[C@H]1CC[C@H]2[C@@H]3CC[C@@H]4C[C@H](O)CC[C@]4(C)[C@H]3CC[C@]12C [GLCA, glycolithocholic acid] |  |  |  |  |  |  | significantly decreased |

Reference: patent publication US7354726B2, “Screening method” (Takeda Pharmaceutical Company Limited, priority 2001, dated 2008)
